{
  "source": "patent US20190329063A1",
  "about": "“METHOD FOR MODIFYING THE T[…] OF DRUGS” (priority 2016, published 2019)",
  "key": {"[1]": {"tested_on": "subjects medicated with MPH", "assay": "Conjunctive continuous performance task (CPT) after half dose MPH with cognitive induction or music control", "type": "in vivo, human", "conditions": "half dose MPH PO", "excerpt": "Reference is now made to FIGS. 7A-7B, depicting validation experiments for testing whether FPC improves attention functions of subjects medicated with MPH, according to some embodiments of the invention. In some embodiments, the experiment includes three sessions. In some embodiments, in the first session 702, the subjects performed a conjunctive continuous performance task (CPT, Shalev et al., 2011). In some embodiments, this test yields measures of sustained attention, which are generalized across different sensory modalities.\nAccording to some embodiments, in the second and the third sessions 706, the subjects took half of their prescribed drug 708 dose by per os (PO) administration. In some embodiments, in the first epoch they went through either a cognitive induction condition 714 during which they performed the NeuroTrax tasks or a control condition 712 during which they listened to a piece of their favorite music. In some embodiments, these 30 min conditions were followed by a 20-minutes rest epoch 716, for example to allow for the testing of an enduring effect of the FPC. […]\nAccording to some exemplary embodiments, FPC effect was measured for the sustained attention measures of average 722 and standard deviation 724 response time, which show high reliability and validity (Shalev et al., 2011). […]"}, "[2]": {"conditions": "after administration of Ritalin IR; cited from earlier work"}, "ADHD patients": {"tested_on": "ADHD patients", "assay": "Real-time fMRI neurofeedback of right-IFG after Ritalin IR with CPTi, CPT and Strooplike tasks", "type": "in vivo, human", "conditions": "0.1-0.2 mg/kg Ritalin IR; right-IFG Up vs Down regulation; 24 ADHD patients", "procedure": "According to some exemplary embodiments, 24 ADHD patients participated in a three session within-subject experimental design.\nIn some embodiments, taking the known pharmacokinetic properties of MPH into account, the neurofeedback paradigm was scheduled to begin towards the estimated peak concentration of MPH in brain blood plasma (45 min), and last for 40 minutes, well into the drug's plateau of concentration phase, thus assuming a maximum effect of drug delivery and absorption to the rIFG and related brain regions. Additionally, cognitive performance was evaluated before administration and following the NF task via three behavioral tasks (CPTi, CPT and Strooplike, measuring response inhibition, sustained attention and executive attention, respectively; Shalev-Mevorach et al. 2005; 2011)."}},
  "data": [
    {"smiles": "COC(=O)C(c1ccccc1)C1CCCCN1", "note": "(stereo not shown) [MPH, Methylphenidate]", "values": [
      {"measurement": "improvement of sustained attention measures, cognitive induction task relative to control task (music)", "setting": "[1]; two subjects", "value": "higher"},
      {"measurement": "sustained attention measures of average and standard deviation response time (CPT)", "setting": "[1]; two subjects (males)", "value": "improved"},
      {"measurement": "estimated peak concentration of MPH in brain blood plasma (time)", "setting": "[2]", "value": 45, "unit": "min"},
      {"measurement": "effects on sustained attention (CPT task) and response inhibition (CPTi task) following the up regulation condition", "setting": "ADHD patients", "value": "substantially larger effects"}
    ]}
  ]
}
